Experiments:
SJL mice = assay: PLP139-151-induced R-EAE model, clinical score and relapse; assay type: in vivo, mouse
Experimental: For PLP139-151-induced R-EAE, 6- to 7-wk-old female SJL mice were immunized s.c. with 100 μL of an emulsion containing 200 μg of M. tuberculosis H37Ra and 50 μg of […] (HSLGKWLGHPDKF) (SEQ ID NO:139) distributed over three spots on the flank. Individual animals were observed daily and clinical scores assessed in a blinded fashion on a 0-5 scale as shown in Table 11 (Miller, et al., Curr. Protocols Immulo., Chapter 12, Unit 15.1). Unless otherwise mentioned, all mice were age and sex-matched for all experiments.
Mice were randomly divided into four groups. For the disease prevention model, B7-H4-Ig or control IgG at 3 mg/kg was injected intraperitoneally (i.p.) on the same day as PLP130-151 priming. For the therapeutic model, B7-H4-Ig or control IgG at 3 mg/kg was given i.p. beginning on approximately Day 21 post PLP130-151 priming. In both cases, B7-H4-Ig was administrated, 3 times a week, for 2-4 weeks.
To determine the therapeutic benefit of B7-H4-Ig, murine B7-H4-Ig was tested in the PLP139-151-induced R-EAE mouse model both for prevention of disease (treatment begun on the same day of disease induction) and therapeutic intervention (treatment begun during the disease remission) settings (FIG. 33). In both cases the disease course was followed for about 2 months to assess clinical disease following the grading system shown in […].
Female SJL mice were first immunized with PLP139-151 peptide emulsified in CFA and then randomized into 2 groups for either prevention or therapeutic treatment. For each treatment regimen there were 2 subgroups, with one subgroup receiving Control IgG and the other subgroup receiving murine B7-H4-Ig. Both Control IgG and murine B7-H4-Ig were given at 3 mg/kg, 3 times a week for 4 weeks. Prevention treatment (FIG. 34) means that murine B7-H4-Ig or Control IgG was administered starting on the day at PLP immunization (t=0). Therapeutic treatment (FIG. 35) means that murine B7-H4-Ig or Control IgG was administered beginning on Day 21 (t=21). The data is presented as the mean clinical score over the 55 day time course with 5 mice per group, and the clinical scores and injection were conducted double blinded.
The effect of B7-H4-Ig treatment on the number of Treg cells in vivo was analyzed in this study. The effect of B7-H4-Ig on the number and phenotype of CD4^+ T cells infiltrating into the CNS following B7-H4-Ig treatment, the relevant site for activity in vivo, was determined. […] SJL mice were first immunized with PLP139-151 peptide. B7-H4-Ig treatment started during remission (Day 23). Mice received mouse Control IgG, 100 μg, or B7-H4-Ig at either 60 or 300 μg, 3 times per week for 2 weeks or 4 weeks. Half of the animals (5 mice from each group) were euthanized on Day 35, after 6 doses of B7-H4-Ig. The rest of the animals (5 mice from each group) were euthanized on Day 50, after 12 doses of B7-H4-Ig. Mouse spleens, draining lymph nodes, spinal cords and brains were collected, tissues were made into a single cell suspension and counted via the use of a hemocytometer, and analyzed for the presence of effector/memory CD4^+ T cells (CD4^+CD44^+) and Treg cells (CD4^+CD25^+FoxP3^+). Whole cerebellar and lumbar spinal cord tissue samples were snap frozen and processed as described above to analyze the number of CD4^+ and FoxP3^+ cells present within the CNS by histology.
Human B7-H4-Ig was also tested for its therapeutic efficacy in the PLP139-151-induced R-EAE mouse model. […]

[1] = system: naïve CD4^+CD62L^+ T cells; assay: In vitro Th2 polarization, proliferation; assay type: cell-based, mouse; conditions: Th2 conditions: IL-2, IL-4, anti-IL12 and anti-IFN-γ (FIG. 23)
From the text: B7-H4-Ig has no impact on Th2 cells using the same target, naïve CD4^+CD62L^+ T cells, under Th2 in vitro polarization conditions: IL-2, IL-4, anti-IL12 and anti-IFN-γ (FIG. 23).

CTLA4KD/BDC2.5/NOD mice = assay: Autoimmune diabetes in CTLA4KD/BDC2.5/NOD mice; assay type: in vivo, mouse
Experimental: CTLA4 KD/NOD mice (Chen, et al., PNAS (2006)) were bred with BDC2.5 TCR transgenic mice (Katz, et al., Cell, 74(6):1089-100 (1993)). Both female and male mice at age of 11 weeks were randomly assigned into experimental groups: vehicle (3 mice), and B7-H4-Ig (5 mice). Mice were treated with B7-H4-Ig 3 times per week for 4 weeks (15 mg/kg, per i.p. injection), and monitored 3 times per week for glucose content in the urine first with Diastix. […] Diabetes was determined when blood glucose reached ≧600 mg/dL.

DBA/1J mice = assay: Collagen-induced arthritis (CIA) prophylactic model, arthritis score; assay type: in vivo, mouse; conditions: 0.5 mg (20 mg/kg) IP from day of CII immunization, 2 times each week up to 6 weeks; days 33 and beyond; vs vehicle (FIG. 3)
From the text: CIA is a well-characterized mouse model for human RA, in which injection of collagen II (CII) into DBA/1J mice induces swelling and progressive inflammation in joints resulting in arthritis. […] B7-H4-Ig treatment continued 2 times each week, up to 6 weeks. On day 21, mice were rechallenged with CII emulsified in IFA. FIG. 2 outlines a brief experimental design. Day 40 was the last B7-H4-Ig treatment.

B7-H4-Ig: B7-H4 extracellular domain fused to Ig Fc; bare label is the human protein in Example 3, murine protein in Examples 1, 2, 5, 7-11
clinical scores (average), R-EAE (SJL mice; 3 mg/kg i.p. 3 times a week for 4 weeks, preventative (t=0) and therapeutic (t=21) regimens, 0-5 scale (FIGS. 34, 35)): 0-0.5
disease symptoms during the acute phase of R-EAE (SJL mice; 1st in vivo study, treatment from the day of PLP139-151/CFA priming): did not affect disease symptoms during the acute phase of R-EAE
mean clinical score, primary relapse (SJL mice; both 3 mg/kg (60 μg/dose) and 15 mg/kg (300 μg/dose), three times a week from day 23 (FIG. 46)): significantly prevented the primary relapsing
impact on Th2 cells (proliferation) [1]: no impact
autoimmune diabetes (blood glucose ≧600 mg/dL) (CTLA4KD/BDC2.5/NOD mice; 15 mg/kg i.p. 3 times per week for 4 weeks from age 11 weeks (FIG. 50)): delayed autoimmune diabetes
age until which treated mice did not develop diabetes (CTLA4KD/BDC2.5/NOD mice; 15 mg/kg i.p. 3 times per week for 4 weeks from age 11 weeks, 10 weeks post treatment): 21 weeks old
overall arthritis scores (DBA/1J mice): significantly lower than the scores for vehicle-injected CIA mice

Human B7-H4-Ig: human B7-H4 extracellular domain fused to hinge, CH2 and CH3 regions of human immunoglobulin Cγ1 chain; representative SEQ ID NOs:114-137
mean clinical score, primary disease relapse (SJL mice; 5 or 25 mg/kg 3 times a week for 4 weeks from Day 23, vs Synagis (FIG. 48A)): reduction of mean clinical score
long-term relapse rate (SJL mice; 5 or 25 mg/kg 3 times a week for 4 weeks from Day 23, vs Synagis (FIG. 48B)): reduction in long-term relapse rate

From patent US9011853B2, “B7-H4 fusion proteins and methods of use thereof” (Amplimmune, Inc., priority 2009, dated 2015)
